Holding throughout (type): in vivo
In assay [1] the test system is Puccinia triticina. In words: Fungicidal activity: wheat brown rust (PUCCRT), wheat seedlings. As to conditions: for pest or weed control at 100 ppm: High volume, wheat; for pest or weed control at 121.5 g/ha: Low Volume Cereal Activity at 121.5 g/Ha. As for the experimental part: All fungicides were evaluated using the aforementioned method for their activity vs. all target diseases, unless stated otherwise. Wheat leaf blotch and brown rust activity were also evaluated using track spray applications, in which case the fungicides were formulated as EC formulations, containing 0.1% Trycol 5941 in the spray solutions. Wheat plants (variety Yuma) were grown from seed in a greenhouse in 50% mineral soil/50% soil-less Metro mix until the first leaf was fully emerged, with 7-10 seedlings per pot. These plants were inoculated with an aqueous spore suspension of Zymoseptoria tritici either prior to or after fungicide treatments. After inoculation the plants were kept in 100% relative humidity (one day in a dark dew chamber followed by two to three days in a lighted dew chamber at 20° C.) to permit spores to germinate and infect the leaf. The plants were then transferred to a greenhouse set at 20° C. for disease to develop. When disease symptoms were fully expressed on the 1st leaves of untreated plants, infection levels were assessed on a scale of 0 to 100 percent disease severity. Percent disease control was calculated using the ratio of disease severity on treated plants relative to untreated plants. Example B: Evaluation of Fungicidal Activity: Wheat Brown Rust (Puccinia triticina; Synonym: Puccinia recondita f. sp. tritici; Bayer code PUCCRT) Wheat plants (variety Yuma) were grown from seed in a greenhouse in 50% mineral soil/50% soil-less Metro mix until the first leaf was fully emerged, with 7-10 seedlings per pot. These plants were inoculated with an aqueous spore suspension of Puccinia triticina either prior to or after fungicide treatments. […] The plants were then transferred to a greenhouse set at 24° C. for disease to develop. Fungicide formulation, application and disease assessment followed the procedures as described in the Example A.

For assay [2], the system named is Zymoseptoria tritici. In words: Fungicidal activity: leaf blotch of wheat (SEPTTR), wheat seedlings. As to conditions: for pest or weed control at 100 ppm: High volume, wheat; for pest or weed control at 121.5 g/ha: Low Volume Cereal Activity at 121.5 g/Ha. The method, then: All fungicides were evaluated using the aforementioned method for their activity vs. all target diseases, unless stated otherwise. Wheat leaf blotch and brown rust activity were also evaluated using track spray applications, in which case the fungicides were formulated as EC formulations, containing 0.1% Trycol 5941 in the spray solutions. Wheat plants (variety Yuma) were grown from seed in a greenhouse in 50% mineral soil/50% soil-less Metro mix until the first leaf was fully emerged, with 7-10 seedlings per pot. These plants were inoculated with an aqueous spore suspension of Zymoseptoria tritici either prior to or after fungicide treatments. After inoculation the plants were kept in 100% relative humidity (one day in a dark dew chamber followed by two to three days in a lighted dew chamber at 20° C.) to permit spores to germinate and infect the leaf. The plants were then transferred to a greenhouse set at 20° C. for disease to develop. When disease symptoms were fully expressed on the 1st leaves of untreated plants, infection levels were assessed on a scale of 0 to 100 percent disease severity. Percent disease control was calculated using the ratio of disease severity on treated plants relative to untreated plants.

The subject of assay [3] is Leptosphaeria nodorum. The experiment in a line: Fungicidal activity: wheat glume blotch (LEPTNO), wheat seedlings. As to conditions: Parastagonospora nodorum, 1DP, high volume, read-out: LEPTNO (% control rating).
Assay [4] has as its system Rhyncosporium secalis. In words: Fungicidal activity: barley scald (RHYNSE), barley seedlings. As to conditions: Hordeum vulgare, 1DP, high volume, read-out: RHYNSE (% control rating).
Assay [5] concerns Cercospora beticola. The experiment in a line: Fungicidal activity: leaf spot of sugar beets (CERCBE). As to conditions: 1DP, high volume, sugar beet, read-out: CERCBE (% control rating).
Assay [6] has as its system Alternaria solani. In words: Fungicidal activity: tomato early blight (ALTESO), tomato plants. As to conditions: 1DP, high volume, read-out: ALTESO (% control rating).
Assay [7] concerns Pyricularia oryzae. The experiment in a line: whole plant or invertebrate. As to conditions: read-out: PYRIOR (% control rating).
The subject of assay [8] is Colletotrichum lagenarium. The experiment in a line: Fungicidal activity: cucumber anthracnose (COLLLA), cucumber seedlings. As to conditions: Colletotrichum orbiculare, 1DP, high volume, read-out: COLLLA (% control rating).
Assay [9] has as its system Venturia inaequalis. The experiment in a line: Fungicidal activity: apple scab (VENTIN), apple seedlings. As to conditions: 1DP, high volume, read-out: VENTIN (% control rating).
Assay [10] concerns Phakopsora pachyrhizi. The experiment in a line: Fungicidal activity: Asian soybean rust (PHAKPA), soybean seedlings. As to conditions: High volume; for pest or weed control at 25 ppm: Phakopsora pachyrhizi.
The mark [11] stands for this setting: 24 h, 1 Day Protectant, read-out: PUCCRT 1 DP (Wheat Brown Rust, 1 Day Protectant).
Where [12] appears, read: 72 h, 3 Day Curative, read-out: PUCCRT 3 DC (Wheat Brown Rust, 3 Day Curative).
[13] abbreviates: 24 h, 1 Day Protectant, read-out: SEPTTR 1 DP (Wheat Leaf Blotch, 1 Day Protectant).
The mark [14] stands for this setting: 72 h, 3 Day Curative, read-out: SEPTTR 3 DC (Wheat Leaf Blotch, 3 Day Curative).
Setting [15] is: 24 h, 1 day protectant, read-out: PHAKPA 1 DP (% control rating).
Where [16] appears, read: 72 h, 3 day curative, read-out: PHAKPA 3 DC (% control rating).

Read-outs that look alike come from different tables or passages of the source. A value given as a limit tells only on which side of the number the result lay.

Consider `COc1cc(F)ccc1[C@@H](Oc1ccccc1)[C@H](C)OC(=O)[C@H](C)NC(=O)c1nccc(OC)c1O` [Example 178], for which the pest or weed control at 100 ppm in assay [1] (24 h, 1 day protectant, read-out: PUCCRT 1 DP (% control rating)) is greater than 80%; in assay [1] (72 h, 3 day curative, read-out: PUCCRT 3 DC (% control rating)) it was less than 80%; in assay [2] (24 h, 1 day protectant, read-out: SEPTTR 1 DP (% control rating)) it was greater than 80%; in [2] (72 h, 3 day curative, read-out: SEPTTR 3 DC (% control rating)), greater than 80%.

For the compound `COc1ccnc(C(=O)N[C@@H](C)C(=O)O[C@@H](C)C(Oc2ccc(F)cc2)c2ccc(F)cc2)c1OC(C)=O` (stereo partly shown) [Example 236], the pest or weed control at 100 ppm in assay [3] was greater than 80%; in [4] it was greater than 80%; in assay [5], greater than 80%; in [6] it was less than 80%; in [7] it was greater than 80%; in assay [8], less than 80%. Further, the pest or weed control at 100 ppm in assay [9] was greater than 80%. Moreover, the pest or weed control at 121.5 g/ha in [1] (setting [11]), in assay [1] (setting [12]), in assay [2] (setting [13]) and in [2] (setting [14]) was greater than 80% in each case. Also, the pest or weed control at 25 ppm in assay [10] (setting [15]) is greater than 80%; in assay [10] (setting [16]) it was less than 0%.

As to `COc1cc(C)ccc1[C@@H](Oc1ccccc1)[C@H](C)OC(=O)[C@H](C)NC(=O)c1nccc(OC)c1OC(C)=O` [Example 269], the pest or weed control at 121.5 g/ha in assay [1] (setting [11]), in assay [1] (setting [12]), in [2] (setting [13]) and in assay [2] (setting [14]) was greater than 80% in each case. The pest or weed control at 25 ppm in assay [10] (setting [15]) was greater than 80%; in assay [10] (setting [16]), less than 80%.

In the case of `COc1cc(F)ccc1[C@@H](Oc1ccccc1)[C@H](C)OC(=O)[C@H](C)NC(=O)c1nccc(OC)c1OC(C)=O` [Example 270], in assay [10] (25 ppm, 1 day protectant), the “PHAKPA 1 DP (% control rating)” value is recorded as “B (≤80)”. In assay [10] (25 ppm, 3 day curative), the “PHAKPA 3 DC (% control rating)” value is listed as “D (≤0)”.

For the origin of these results see patent US10173981B2, “Picolinamides as fungicides” (DOW AGROSCIENCES LLC, priority 2014, dated 2019).
